Experimental data published in patent US20130085105A1, “Transdermal Administration Of Peptides” (The Provost, Fellows and Scholars of the College of Holy …, priority 2010, published 2013).

How the values were obtained:
[1] = In vitro transdermal permeation, diffusion cell, hairless mouse skin; assay type: in vitro ADME, hairless mice
Source text: The abdominal skin from male hairless mice (mice of the HRS strain carrying a mutant Hr gene (hr/hr)) aged 6-8 weeks was cleaned of any subcutaneous fat with blood vessels while maintaining the integrity of the viable epidermis and SC. The excised skin was used immediately after preparation and was not stored prior to use.
A custom made finite dosing diffusion cell (AGB Scientific, Dublin, Ireland, FIG. 1) based upon and modified from the Keshary-Chien type diffusion cell was used for in vitro permeation studies.
Three to five diffusion cells were used in each permeation experiment and monitoring was performed over a 48 hour period. The cells were linked in series to a thermostatically controlled circulation bath set at 35° C. to mimic human skin surface temperature. Each cell was placed on a stir-plate set at a defined stirring rate of 1,000 rpm. The surface area for permeation provided by each cell was 3.14 cm^2.
Data collected from each permeation study included:
1) the average maximum flux obtained in 48 hours (Jmax),
2) the total absorption characterized as the total weight of peptide delivered transdermally into the receiver compartment over a 48 hour period,
3) the lag time to detectable flux which was equivalent to the latest sampling time at which no peptide was detectable by HPLC analysis of the receiver solution, and
4) an equivalent 48-hour steady state flux was determined by obtaining the slope of the best-fit line for a plot of cumulative flux per unit area versus time (described by McDaid, D. M. et al., Int. J. Pharm., 133:71-83, 1996).
Fresh hairless mouse skin samples or fresh or freshly thawed pig skin samples were mounted onto the diffusion cell with the SC topmost and in contact with the donor system. A rubber or plastic ring was placed on top of the skin sample to secure it in position. The combination of the diffusion cell top, the skin and the rubber ring was securely fastened together by means of a threaded cap. A recorded volume of receiver solution was added to the receiver compartment and maintained at 35° C. The receiver solution was 60/40 (v/v) PBS/propylene glycol (pH 7.1). The propylene glycol fraction was used to increase the solubility of the somatostatin-fatty acid salts. Previous work reported by Morgan et al. (J. Pharm. Sci., 87:1213-1218, 1998) has shown that a 50/50 water/propylene glycol receptor solution had no detrimental effect on the barrier integrity of both hairless mouse and porcine skin.
The receiver solution was allowed to equilibrate at 35° C. for 30 minutes. […] A narrow-bore hypodermic needle was used to withdraw 1 ml samples from the receiver compartment via the sampling port; at each sampling time, an equal volume of drug-free receiver solution was immediately added back to the receiver compartment. Samples were analyzed by HPLC.
HPLC determination of peptide content in the receiver solution along with the known surface area of skin used (3.14 cm^2) allowed for calculation of transdermal flux (in units of μg/cm^2/hr) for each time point. Panels 1 and 2 of FIG. 2 show flux […] profiles for the myristate, octanoate, decanoate, linoleate, nonanote, acetate and laurate […]
Once lead candidate somatostatin-fatty acid salts had been selected on the basis of in vitro permeation in a DMSO solution, the effect of different solvents and penetration enhancers on permeation was assessed. The concentration of the donor solution corresponded to 5 mg/ml free base peptide for all experiments and all donor solutions were equilibrated at 37° C. for one hour prior to use. These experiments were carried out using hairless mouse skin and pigskin barriers.

[2] = pH of donor vehicles containing Compound B oleate; assay type: physicochemical
Description: The donor vehicles described herein were prepared at or close to neutral pH; this pH is close to the pH at which the fatty acid salts were synthesized and isolated. Because this work focused upon fatty acid peptide salts, a neutral pH was preferred to maintain molecular pairing. As described by Fini et al. (Int. J. Pharm., 187:163-173, 1999), adverse pH conditions can cause salt/ion pairs to dissociate, resulting in the loss of many properties beneficial to increasing transdermal flux, for example lipophilicity. […] Significant dissociation would have led to distortion of the flux profiles due to the formation of free oleic acid, in itself a potent penetration enhancer.

[3] = Partition coefficients n-octanol/deionized water and n-octanol/PBS; assay type: physicochemical; details: 24 hours
Description: The partition coefficients for all somatostatin-fatty acid salts in either n-octanol/deionized water or n-octanol/PBS (pH 7.4) were determined. The partition coefficient is the concentration of Compound A or Compound B in the n-octanol phase divided by the concentration in the aqueous or PBS phase.
An accurately weighed sample of each salt was placed into 4 ml HPLC vials sealed with caps containing pierceable silicone septa and dissolved in 2 ml n-octanol. Two ml of either deionized water or PBS were added to each sample; the vials were vortexed vigorously and incubated at 37° C. with agitation for 24 hours in a shaker-incubator at 400 rpm.
Following incubation, two samples were withdrawn from each vial. Once the layers had fully partitioned, a syringe was used to draw a sample of the aqueous phase or the n-octanol phase. Samples from each phase were diluted appropriately with deionized or methanol prior to HPLC analysis.

[4] = donor 55% EtOH 40% Water 5% Cineole, 5 mg/ml free base peptide
[5] = donor 55/45 (v/v) EtOH/H2O, approx. 5 mg/ml free base peptide
[6] = donor DMSO, approx. 5 mg/ml free base peptide (4.9 mg/ml Compound A oleate, 5.2 mg/ml Compound A acetate)
[7] = donor DMSO, approx. 5 mg/ml free base peptide (4.9 mg/ml Compound A oleate, 5.2 mg/ml Compound A acetate), 48 hr
[8] = n-octanol/deionized water, 37° C.

Substance: [4-(2-hydroxyethyl)]-1-piperazinylacetyl-D-Phe-c(Cys-Tyr-D-Trp-Lys-Abu-Cys)-Thr-NH2 [Compound B di-oleate]
- increase in total peptide flux over 48 hours due to cineole ([1]; 55/40/5 ethanol/water/cineole vs 55/45 ethanol/water): 19.26%
- Jmax [1, 4]: 39.838 μg/cm^2/hr
- Jss [1, 4]: 24.075 μg/cm^2/hr
- Lag Time [1, 4]: 1 h
- Total Absorption [1, 4]: 3,279.62 μg/48 hr
- Jmax [1, 5]: 32.902 μg/cm^2/hr
- Jss [1, 5]: 20.264 μg/cm^2/hr
- Lag Time [1, 5]: 1 h
- Total Absorption [1, 5]: 2,750.01 μg/48 hr
- Lag Time [1, 6]: 1 h
- Total Absorption [1, 6]: 814.86 μg/48 hr
- Jmax [1, 7]: 21.407 μg/cm^2/hr
- Jss [1, 7]: 5.158 μg/cm^2/hr
- flux profile in DMSO compared with other salts ([1]; vs myristate, octanoate, decanoate, linoleate, nonanoate, acetate, laurate salts of Compound A and acetate of Compound B): far exceeded
- pH ([2]; approx. 5 mg/ml in 55% EtOH 40% H2O 5% 1,8-Cineole): 6.89
- pH ([2]; approx. 5 mg/ml in 80% Prop. Glycol 15% Decanol 5% 1,8-Cineole): 7.08
- pH ([2]; approx. 5 mg/ml in 80% Prop. Glycol 15% Dodecanol 5% 1,8-Cineole): 7.56
- Log KOPBS ([3]; n-octanol/PBS pH 7.4, 37° C.): −1.398
- O/PBS Coefficient (KOPBS) ([3]; n-octanol/PBS pH 7.4, 37° C.): 0.04
- Log KOW [3, 8]: 2.532
- O/W Coefficient (KOW) [3, 8]: 340.43
